Results as given in the kinase profiling compilation of Christmann-Franck et al. (2016).

Experiments:
Experiment in all cases: radiometric filter-binding kinase assay, Kinase HotSpot
Conditions in all cases: compound 0.5 µM; ATP 10 µM
AURKA (human) = AURKA (human) (UniProt O14965)
AURKC (human) = AURKC (human) (UniProt Q9UQB9)
CAMK2A (human) = CAMK2A (human) (UniProt Q9UQM7)
CDC42BPA (human) = CDC42BPA (human) (UniProt Q5VT25)
CDK2 CCNE1 (human) = CDK2 CCNE1 (human) (UniProt P24941+P24864)
CDK4 CCND3 (human) = CDK4 CCND3 (human) (UniProt P30281+P11802)
CDK5 CDK5R1 p25 (human) = CDK5 CDK5R1 p25 (human) (UniProt Q00535+Q15078)
CSK (human) = CSK (human) (UniProt P41240)
CSNK1D (human) = CSNK1D (human) (UniProt P48730)
CSNK1G3 (human) = CSNK1G3 (human) (UniProt Q9Y6M4)
DSTYK (human) = DSTYK (human) (UniProt Q6XUX3)
EPHB1 (human) = EPHB1 (human) (UniProt P54762)
EPHB2 (human) = EPHB2 (human) (UniProt P29323)
FLT3 (human) = FLT3 (human) (UniProt P36888)
GSG2 (human) = GSG2 (human) (UniProt Q8TF76)
HIPK4 (human) = HIPK4 (human) (UniProt Q8NE63)
INSR (human) = INSR (human) (UniProt P06213)
ITK (human) = ITK (human) (UniProt Q08881)
JAK3 JH1 JH2 (human) = JAK3 JH1 JH2 (human) (UniProt P52333)
LIMK1 (human) = LIMK1 (human) (UniProt P53667)
LRRK2 (human) = LRRK2 (human) (UniProt Q5S007)
MAP3K3 (human) = MAP3K3 (human) (UniProt Q99759)
MAP3K8 (human) = MAP3K8 (human) (UniProt P41279)
MAP3K9 (human) = MAP3K9 (human) (UniProt P80192)
MAPK8 (human) = MAPK8 (human) (UniProt P45983)
MARK1 (human) = MARK1 (human) (UniProt Q9P0L2)
MARK3 (human) = MARK3 (human) (UniProt P27448)
MATK (human) = MATK (human) (UniProt P42679)
MELK (human) = MELK (human) (UniProt Q14680)
MUSK (human) = MUSK (human) (UniProt O15146)
NUAK1 (human) = NUAK1 (human) (UniProt O60285)
PAK6 (human) = PAK6 (human) (UniProt Q9NQU5)
PAK7 (human) = PAK7 (human) (UniProt Q9P286)
PIM3 (human) = PIM3 (human) (UniProt Q86V86)
PKN1 (human) = PKN1 (human) (UniProt Q16512)
SGK3 (human) = SGK3 (human) (UniProt Q96BR1)
STK10 (human) = STK10 (human) (UniProt O94804)
STK17A (human) = STK17A (human) (UniProt Q9UEE5)
TGFBR1 (human) = TGFBR1 (human) (UniProt P36897)
ULK2 (human) = ULK2 (human) (UniProt Q8IYT8)
ULK2 (human), sequence (Q8IYT8 whole entry, looked up): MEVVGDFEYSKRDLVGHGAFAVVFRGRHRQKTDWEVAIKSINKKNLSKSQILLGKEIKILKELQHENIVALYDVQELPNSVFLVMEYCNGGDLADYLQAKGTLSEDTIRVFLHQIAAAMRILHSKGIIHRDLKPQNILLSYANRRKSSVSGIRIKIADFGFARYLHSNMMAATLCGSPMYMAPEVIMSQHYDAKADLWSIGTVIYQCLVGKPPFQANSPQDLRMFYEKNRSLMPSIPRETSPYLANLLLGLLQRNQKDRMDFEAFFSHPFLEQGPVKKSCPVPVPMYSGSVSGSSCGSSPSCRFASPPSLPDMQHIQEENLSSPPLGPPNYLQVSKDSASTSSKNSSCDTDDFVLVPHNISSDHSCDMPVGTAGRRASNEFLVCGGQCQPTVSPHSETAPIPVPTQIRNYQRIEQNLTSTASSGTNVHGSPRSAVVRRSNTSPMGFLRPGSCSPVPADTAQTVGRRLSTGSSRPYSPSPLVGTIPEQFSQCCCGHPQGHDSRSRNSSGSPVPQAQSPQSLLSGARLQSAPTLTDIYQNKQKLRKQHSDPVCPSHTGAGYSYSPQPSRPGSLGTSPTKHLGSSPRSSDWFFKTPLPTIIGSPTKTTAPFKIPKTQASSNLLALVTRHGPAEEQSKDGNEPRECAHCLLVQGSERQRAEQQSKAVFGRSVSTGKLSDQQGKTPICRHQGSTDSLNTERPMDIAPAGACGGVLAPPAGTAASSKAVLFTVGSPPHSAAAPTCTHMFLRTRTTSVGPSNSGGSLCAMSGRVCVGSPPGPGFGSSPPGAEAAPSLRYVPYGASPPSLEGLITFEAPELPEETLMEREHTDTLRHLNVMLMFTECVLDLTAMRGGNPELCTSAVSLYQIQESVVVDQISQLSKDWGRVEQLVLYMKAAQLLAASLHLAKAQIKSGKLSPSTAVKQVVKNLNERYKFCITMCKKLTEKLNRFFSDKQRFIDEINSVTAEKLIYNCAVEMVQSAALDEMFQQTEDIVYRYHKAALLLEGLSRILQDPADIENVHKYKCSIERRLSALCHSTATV

MAP3K8 (human), sequence (P41279 whole entry, looked up): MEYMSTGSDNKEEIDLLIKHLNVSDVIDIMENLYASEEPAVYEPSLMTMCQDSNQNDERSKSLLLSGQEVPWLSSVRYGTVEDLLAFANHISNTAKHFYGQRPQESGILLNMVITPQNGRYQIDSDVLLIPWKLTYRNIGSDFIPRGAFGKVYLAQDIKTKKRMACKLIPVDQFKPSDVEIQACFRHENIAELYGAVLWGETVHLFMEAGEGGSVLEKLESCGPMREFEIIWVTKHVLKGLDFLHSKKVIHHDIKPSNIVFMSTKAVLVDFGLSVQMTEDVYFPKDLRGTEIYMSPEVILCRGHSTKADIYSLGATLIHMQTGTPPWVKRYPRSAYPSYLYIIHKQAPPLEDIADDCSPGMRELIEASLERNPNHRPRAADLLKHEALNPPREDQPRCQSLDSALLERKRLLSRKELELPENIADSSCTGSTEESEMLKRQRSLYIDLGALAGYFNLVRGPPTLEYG
EPHB1 (human), sequence (P54762 whole entry, looked up): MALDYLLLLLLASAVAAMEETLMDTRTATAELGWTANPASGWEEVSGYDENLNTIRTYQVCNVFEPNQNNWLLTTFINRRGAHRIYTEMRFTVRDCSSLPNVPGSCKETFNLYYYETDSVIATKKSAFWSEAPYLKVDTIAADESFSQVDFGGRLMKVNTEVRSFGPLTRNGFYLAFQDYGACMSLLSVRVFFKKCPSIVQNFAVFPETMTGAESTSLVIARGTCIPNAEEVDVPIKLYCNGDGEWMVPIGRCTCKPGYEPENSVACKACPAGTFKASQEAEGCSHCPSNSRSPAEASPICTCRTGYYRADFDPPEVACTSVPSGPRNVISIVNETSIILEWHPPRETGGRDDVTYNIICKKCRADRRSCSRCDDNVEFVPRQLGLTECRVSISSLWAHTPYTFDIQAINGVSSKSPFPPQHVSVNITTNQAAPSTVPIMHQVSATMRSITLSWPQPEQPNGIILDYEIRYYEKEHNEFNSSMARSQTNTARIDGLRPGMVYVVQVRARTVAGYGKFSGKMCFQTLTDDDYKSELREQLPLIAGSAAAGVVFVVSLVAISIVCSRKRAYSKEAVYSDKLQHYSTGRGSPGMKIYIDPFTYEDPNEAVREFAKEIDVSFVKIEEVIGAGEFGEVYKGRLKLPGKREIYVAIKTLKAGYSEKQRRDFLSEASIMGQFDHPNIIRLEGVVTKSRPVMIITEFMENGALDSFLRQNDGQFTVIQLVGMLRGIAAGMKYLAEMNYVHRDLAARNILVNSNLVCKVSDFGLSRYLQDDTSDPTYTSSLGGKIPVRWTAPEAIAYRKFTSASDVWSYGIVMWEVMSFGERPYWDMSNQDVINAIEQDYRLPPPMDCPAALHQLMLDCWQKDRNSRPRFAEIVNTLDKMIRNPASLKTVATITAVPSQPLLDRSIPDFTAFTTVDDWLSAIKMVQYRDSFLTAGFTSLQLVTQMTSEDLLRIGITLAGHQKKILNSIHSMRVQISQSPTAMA
MATK (human), sequence (P42679 whole entry, looked up): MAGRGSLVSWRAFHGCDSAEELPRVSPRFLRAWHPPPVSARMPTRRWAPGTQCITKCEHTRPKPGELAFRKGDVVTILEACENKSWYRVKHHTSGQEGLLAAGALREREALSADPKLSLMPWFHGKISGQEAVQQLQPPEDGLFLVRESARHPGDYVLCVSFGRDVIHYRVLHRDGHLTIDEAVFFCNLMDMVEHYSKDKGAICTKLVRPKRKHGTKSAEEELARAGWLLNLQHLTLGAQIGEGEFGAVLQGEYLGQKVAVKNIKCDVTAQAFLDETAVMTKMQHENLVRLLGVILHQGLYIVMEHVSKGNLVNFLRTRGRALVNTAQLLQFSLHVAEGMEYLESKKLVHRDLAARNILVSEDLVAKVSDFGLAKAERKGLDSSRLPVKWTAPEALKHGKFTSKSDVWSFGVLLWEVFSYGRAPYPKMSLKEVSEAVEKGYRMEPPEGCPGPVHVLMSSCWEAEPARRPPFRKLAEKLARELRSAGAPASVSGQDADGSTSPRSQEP
GSG2 (human), sequence (Q8TF76 whole entry, looked up): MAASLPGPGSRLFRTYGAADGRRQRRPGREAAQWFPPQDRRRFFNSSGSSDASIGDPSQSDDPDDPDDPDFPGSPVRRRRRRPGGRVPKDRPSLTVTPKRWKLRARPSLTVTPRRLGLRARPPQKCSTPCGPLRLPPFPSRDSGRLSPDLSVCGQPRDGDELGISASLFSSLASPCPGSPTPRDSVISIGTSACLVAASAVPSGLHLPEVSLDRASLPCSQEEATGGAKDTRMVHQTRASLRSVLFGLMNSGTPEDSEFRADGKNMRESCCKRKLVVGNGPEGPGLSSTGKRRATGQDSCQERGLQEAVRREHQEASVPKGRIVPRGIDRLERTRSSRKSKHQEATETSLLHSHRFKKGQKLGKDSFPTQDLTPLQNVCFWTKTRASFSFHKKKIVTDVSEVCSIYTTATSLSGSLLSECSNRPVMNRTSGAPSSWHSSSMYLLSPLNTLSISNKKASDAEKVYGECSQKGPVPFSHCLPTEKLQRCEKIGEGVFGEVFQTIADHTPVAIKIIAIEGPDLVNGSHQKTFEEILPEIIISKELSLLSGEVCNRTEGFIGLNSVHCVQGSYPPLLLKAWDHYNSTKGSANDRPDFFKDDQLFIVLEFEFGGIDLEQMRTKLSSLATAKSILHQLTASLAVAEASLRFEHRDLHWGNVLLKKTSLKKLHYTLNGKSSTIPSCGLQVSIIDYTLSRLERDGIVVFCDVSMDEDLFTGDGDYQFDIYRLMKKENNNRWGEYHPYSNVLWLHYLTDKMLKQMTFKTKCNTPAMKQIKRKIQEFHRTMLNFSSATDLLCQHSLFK
CSNK1G3 (human), sequence (Q9Y6M4 whole entry, looked up): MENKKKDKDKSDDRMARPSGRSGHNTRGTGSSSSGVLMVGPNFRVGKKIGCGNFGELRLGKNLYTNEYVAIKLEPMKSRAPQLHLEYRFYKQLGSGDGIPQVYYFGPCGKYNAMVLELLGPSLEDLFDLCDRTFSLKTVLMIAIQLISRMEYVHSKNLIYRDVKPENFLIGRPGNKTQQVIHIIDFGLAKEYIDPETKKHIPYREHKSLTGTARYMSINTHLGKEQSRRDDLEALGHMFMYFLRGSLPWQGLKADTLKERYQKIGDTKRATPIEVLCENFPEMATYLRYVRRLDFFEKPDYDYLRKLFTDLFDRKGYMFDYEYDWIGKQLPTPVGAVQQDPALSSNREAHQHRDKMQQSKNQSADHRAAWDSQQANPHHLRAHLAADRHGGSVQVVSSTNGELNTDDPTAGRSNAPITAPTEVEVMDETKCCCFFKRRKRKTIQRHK
CDK4 CCND3 (human), sequence (P11802 whole entry, looked up): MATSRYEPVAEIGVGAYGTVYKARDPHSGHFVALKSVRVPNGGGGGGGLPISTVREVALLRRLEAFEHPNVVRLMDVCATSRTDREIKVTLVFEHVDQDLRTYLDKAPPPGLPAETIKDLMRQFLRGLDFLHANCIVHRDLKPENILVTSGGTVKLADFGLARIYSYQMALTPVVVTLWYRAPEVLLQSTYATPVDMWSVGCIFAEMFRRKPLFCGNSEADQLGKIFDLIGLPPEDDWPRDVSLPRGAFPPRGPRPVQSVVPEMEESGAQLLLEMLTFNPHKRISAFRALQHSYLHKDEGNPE
CDK4 CCND3 (human), sequence (P30281 whole entry, looked up): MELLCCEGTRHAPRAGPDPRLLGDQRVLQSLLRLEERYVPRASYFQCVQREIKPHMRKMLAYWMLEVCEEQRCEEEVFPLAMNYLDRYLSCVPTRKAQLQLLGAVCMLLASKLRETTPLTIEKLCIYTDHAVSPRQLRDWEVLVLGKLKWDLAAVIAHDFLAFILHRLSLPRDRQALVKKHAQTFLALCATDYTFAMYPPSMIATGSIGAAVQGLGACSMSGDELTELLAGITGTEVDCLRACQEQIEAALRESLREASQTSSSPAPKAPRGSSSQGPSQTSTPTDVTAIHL

Work on `CCCC(=O)Oc1ccc2[nH]c(C(=O)c3cc4ccccc4[nH]3)cc2c1` yielded a residual activity (AURKA (human)) of 94.6%, a residual activity (AURKC (human)) of 94.9% and a residual activity (CAMK2A (human)) of 87%. For the same molecule, the residual activity (CDC42BPA (human)) was 98%, the residual activity (CDK2 CCNE1 (human)) was 92.1% and the residual activity (CDK4 CCND3 (human)) was 103%. It also gave a residual activity (CDK5 CDK5R1 p25 (human)) of 90.1%, a residual activity (CSK (human)) of 83.5% and a residual activity (CSNK1D (human)) of 96.4%. It also gave a residual activity (CSNK1G3 (human)) of 82.7%, a residual activity (DSTYK (human)) of 94.9% and a residual activity (EPHB1 (human)) of 92.1%. For the same molecule, the residual activity (EPHB2 (human)) was 98.4%, the residual activity (FLT3 (human)) was 79.9% and the residual activity (GSG2 (human)) was 99.2%. The residual activity (HIPK4 (human)) was 86.3%, the residual activity (INSR (human)) was 101% and the residual activity (ITK (human)) was 82%. It also gave a residual activity (JAK3 JH1 JH2 (human)) of 95.6%, a residual activity (LIMK1 (human)) of 93.9% and a residual activity (LRRK2 (human)) of 101%. It also gave a residual activity (MAP3K3 (human)) of 91.9%, a residual activity (MAP3K8 (human)) of 97.6% and a residual activity (MAP3K9 (human)) of 97.7%. For the same molecule, the residual activity (MAPK8 (human)) was 84%, the residual activity (MARK1 (human)) was 96.4% and the residual activity (MARK3 (human)) was 92.1%. For the same molecule, the residual activity (MATK (human)) was 93.4%, the residual activity (MELK (human)) was 96.4% and the residual activity (MUSK (human)) was 79.8%. The residual activity (NUAK1 (human)) was 94%, the residual activity (PAK6 (human)) was 94.5% and the residual activity (PAK7 (human)) was 91%. The residual activity (PIM3 (human)) was 84.5%, the residual activity (PKN1 (human)) was 94.6% and the residual activity (SGK3 (human)) was 102%. For the same molecule, the residual activity (STK10 (human)) was 94.3%, the residual activity (STK17A (human)) was 90.9% and the residual activity (TGFBR1 (human)) was 101%. It also gave a residual activity (ULK2 (human)) of 98.3%.

`CNc1cc2c(Nc3cccc(Br)c3)ncnc2cn1` showed a residual activity (AURKA (human)) of 85.1%, a residual activity (AURKC (human)) of 85.9% and a residual activity (CAMK2A (human)) of 105%. It also gave a residual activity (CDC42BPA (human)) of 95.2%, a residual activity (CDK2 CCNE1 (human)) of 88.6% and a residual activity (CDK4 CCND3 (human)) of 120%. For the same molecule, the residual activity (CDK5 CDK5R1 p25 (human)) was 82.9%, the residual activity (CSK (human)) was 82% and the residual activity (CSNK1D (human)) was 98.7%. For the same molecule, the residual activity (CSNK1G3 (human)) was 86.3%, the residual activity (DSTYK (human)) was 94.1% and the residual activity (EPHB1 (human)) was 90.2%. For the same molecule, the residual activity (EPHB2 (human)) was 91.2%, the residual activity (FLT3 (human)) was 71.2% and the residual activity (GSG2 (human)) was 91.8%. The residual activity (HIPK4 (human)) was 82.8%, the residual activity (INSR (human)) was 100% and the residual activity (ITK (human)) was 92.5%. For the same molecule, the residual activity (JAK3 JH1 JH2 (human)) was 103%, the residual activity (LIMK1 (human)) was 95.9% and the residual activity (LRRK2 (human)) was 67%. For the same molecule, the residual activity (MAP3K3 (human)) was 73.3%, the residual activity (MAP3K8 (human)) was 90.2% and the residual activity (MAP3K9 (human)) was 94.4%. It also gave a residual activity (MAPK8 (human)) of 96.4%, a residual activity (MARK1 (human)) of 96.1% and a residual activity (MARK3 (human)) of 82.2%. The residual activity (MATK (human)) was 88%, the residual activity (MELK (human)) was 91.6% and the residual activity (MUSK (human)) was 81.3%. It also gave a residual activity (NUAK1 (human)) of 97.5%, a residual activity (PAK6 (human)) of 96.6% and a residual activity (PAK7 (human)) of 90.8%. It also gave a residual activity (PIM3 (human)) of 55.2%, a residual activity (PKN1 (human)) of 103% and a residual activity (SGK3 (human)) of 96.8%. The residual activity (STK10 (human)) was 31.8%, the residual activity (STK17A (human)) was 98.4% and the residual activity (TGFBR1 (human)) was 97.7%. The residual activity (ULK2 (human)) was 119%.

`O=C1NC(=O)c2c1c1c3ccccc3n3c1c1c2c2ccccc2n1C1CCC3O1` was tested, and the residual activity (AURKA (human)) was 22.3%, the residual activity (AURKC (human)) was 36.5% and the residual activity (CAMK2A (human)) was 2.84%. The residual activity (CDC42BPA (human)) was 84%, the residual activity (CDK2 CCNE1 (human)) was 28.5% and the residual activity (CDK4 CCND3 (human)) was 22.2%. It also gave a residual activity (CDK5 CDK5R1 p25 (human)) of 28%, a residual activity (CSK (human)) of 79.7% and a residual activity (CSNK1D (human)) of 93.8%. It also gave a residual activity (CSNK1G3 (human)) of 108%, a residual activity (DSTYK (human)) of 45.5% and a residual activity (EPHB1 (human)) of 80.2%. For the same molecule, the residual activity (EPHB2 (human)) was 98.4%, the residual activity (FLT3 (human)) was 0.194% and the residual activity (GSG2 (human)) was 18.5%. The residual activity (HIPK4 (human)) was 29.1%, the residual activity (INSR (human)) was 17.2% and the residual activity (ITK (human)) was 8.29%. It also gave a residual activity (JAK3 JH1 JH2 (human)) of 1.87%, a residual activity (LIMK1 (human)) of 49.3% and a residual activity (LRRK2 (human)) of 1.91%. For the same molecule, the residual activity (MAP3K3 (human)) was 18.4%, the residual activity (MAP3K8 (human)) was 94.6% and the residual activity (MAP3K9 (human)) was 8.72%. It also gave a residual activity (MAPK8 (human)) of 98.5%, a residual activity (MARK1 (human)) of 10.4% and a residual activity (MARK3 (human)) of 8.53%. The residual activity (MATK (human)) was 91.7%, the residual activity (MELK (human)) was 7.13% and the residual activity (MUSK (human)) was 25.8%. For the same molecule, the residual activity (NUAK1 (human)) was 2.09%, the residual activity (PAK6 (human)) was 85.4% and the residual activity (PAK7 (human)) was 64.7%. It also gave a residual activity (PIM3 (human)) of 0.238%, a residual activity (PKN1 (human)) of 2.68% and a residual activity (SGK3 (human)) of 71.7%. The residual activity (STK10 (human)) was 9.25%, the residual activity (STK17A (human)) was 8.65% and the residual activity (TGFBR1 (human)) was 110%. The residual activity (ULK2 (human)) was 89.1%.
